Results reported in patent US5451571A (The Cleveland Clinic Foundation, priority 1994, dated 1995).
Entries after “also recorded” stand apart in the source; their conditions may differ. Like-named read-outs stand apart in the source and are kept apart here. One block for each compound: values may come before it. Residues, ends and D or L forms follow the SMILES beside them. No end group written: not given here. *: point of attachment. Cbz = O=C(OCc1ccccc1)*

Tests used:
prolylendopeptidase [1] = experiment: 125I-Ang-(1-7) production from 125I-Ang I in dog hypothalamus homogenates (HPLC); type: biochemical
Procedure: (§6) As a result of these discoveries, the enzyme(s) involved in the production of Ang-(1-7) in homogenates (20 mM TRIS HCl buffer, pH 7.5) of dog hypothalamus were evaluated.

NG108 cells = experiment: Ang-(1-7) production from Ang I in NG108 cells; type: cell-based
[2] = system: vascular smooth muscle cultures (VSMC) from spontaneously hypertensive rats; details: for effect on the levels of 125I-Ang-(1-7) / inhibition of the formation of 125I-Ang-(1-7) from 125I-Ang I: 10 μM
Procedure: (§7) Aortic smooth muscle cells were isolated according to the following general process. The adventia and outer third medial layer were removed from segments (2 cm^2) of the thoracic aorta from SHR or WYK rats, minced into 1 cm^2 pieces and allowed to adhere on plastic for 15 minutes. The explants were incubated with Dulbecco's modified Eagles' medium (DMEM, Irvine Scientific CO., Irvine, Calif.) diluted 1:1 with F12 (Irvine Scientific) and supplemented with 10% fetal calf serum and 1% penicillin/streptomyocin in a humid atmosphere of 95% air, 5% CO2 at 37° five days and the tissues were removed after a halo of cells appeared around the explant. […] The culture medium was changed daily for the three days and thereafter, every third day. The smooth muscle cells were evaluated both for their morphological appearance and their recognition of a monoclonal antibody to smooth muscle-type alpha actin (A 2547, Sigma Chemical, St. Louis, MO).
(§8) For metabolism studies, cell monolayers (passage 4 to 6) in 24 well plates were washed twice with 1.0 ml of Krebs-Ringer solution (125 mM NaCl, 5 mM KCl, 1.0 mM CaCl2, 1.2 mMMgSO4, 25 mM HEPES, pH 7.4 and 6 mM glucose). Intact cells were incubated with ^125 I-Ang I (0.2-0.4 nM, final concentration) both in the presence and absence of enzyme inhibitors in 0.25 ml of Krebs buffer at 37° C. At selected time points, aliquots (0.05 ml) were withdrawn from the well, diluted in 0.15 ml 80% acetonitrile (ACN)/0.2% heptafluorobutyric acid (HFBA) stored at -80° C. prior to analysis by high performance liquid chromatography (HPLC). In addition, 0.20 ml of the medium, exposed to the cells for 60 minutes were incubated with ^125 I-Ang I for 60-120 minutes at 37° C. and analyzed by HPLC.
(§9) ^125 I-products were characterized by HPLC using a heptafluorobutyric acid (HFBA) solvent system. This system consisted of 0.13% HFBA (mobile phase A) and 80% ACN/0.13% HFBA (mobile phase B) and the analysis was performed on a Kratos 400 HPLC equipped with a Waters Nova-Pak C18 column (Waters, MA, 2.1×15 mm) and an Aquapore column (Waters, MA, 2.1×15 mm) and an Aquapore C8 guard column (Applied Biosystems, 3.2×1.5 mm). The gradient conditions consisted of 20-50% B Linear (30 min) and 50% B isocratic (10 min) at a flow rate of 0.3 ml/min at room temperature. HPLC fractions were collected every 0.5 min and counted in a gamma counter. Products were identified by comparison of their retention times to those of standard ^125 I-angiotensin peptides. To further assess the identity of each radioactive peak, either the incubation samples or ^125 I-products were rechromatographed using a trifluoracetic acid (TFA) solvent. This system consisted of 0.1% TFA, pH 4.5 (mobile phase A) and 60% ACN/0.1% TFA pH 4.5 (mobile phase B). A linear gradient of 15-45% B (30 min) and 45% B isocratic (10 min) at 0.3 ml/min at room temperature was performed on the HPLC system described above.
(§10) Statistics: Differences in the generation of ^125 I-peptides under various conditions were assessed by analyses of variance followed by Newman Keuls multiple comparison test. The criterion for statistical significance was set at p<0.05.

[3] = system: vascular smooth muscle cultures (VSMC) from normotensive (WKY) rats; experiment: 125I-Ang I metabolism by intact vascular smooth muscle cultures of WKY (HPLC); type: cell-based, rat; details: for effect on the levels of 125I-Ang-(1-7) / inhibition of the formation of 125I-Ang-(1-7) from 125I-Ang I: 10 μM
Procedure: as §7, §8, §9, §10

prolylendopeptidase [4] = biological target: T1, prolylendopeptidase (Canis lupus familiaris, UniProt A0A8I3N6C8); experiment: 125I-Ang-(1-7) production from 125I-Ang I in dog hypothalamus homogenates (HPLC); type: biochemical; details: DTT 1 mM
T1 construct: from tissue; host or cells: dog hypothalamus homogenate, 10,000 g supernatant
Procedure: as §6

ACE = ACE (Homo sapiens, UniProt P12821); details: cited from earlier work
carboxypeptidase A = biological target: T2, carboxypeptidase A (Homo sapiens, UniProt P15085); details: cited from earlier work
T2 sequence (P15085 111-419): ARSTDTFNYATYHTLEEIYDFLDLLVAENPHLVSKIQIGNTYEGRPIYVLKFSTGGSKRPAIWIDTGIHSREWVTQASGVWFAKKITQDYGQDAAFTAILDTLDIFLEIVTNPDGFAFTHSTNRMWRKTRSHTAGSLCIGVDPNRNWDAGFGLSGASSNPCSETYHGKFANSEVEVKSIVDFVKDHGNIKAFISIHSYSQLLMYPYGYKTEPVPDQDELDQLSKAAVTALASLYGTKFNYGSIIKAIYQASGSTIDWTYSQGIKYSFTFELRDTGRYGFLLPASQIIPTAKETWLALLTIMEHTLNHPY

[5] = system: spontaneously hypertensive rats (SHR); experiment: Blood angiotensin peptides (RIA) after i.v. Ang I in conscious SHR with enzyme inhibitors; type: in vivo, rat
Procedure: (§1) All experiments were carried out in strict adherence to the principles sponsored by the American Physiological Society. Male 16-week-old SHR(319±4 gm) and WKY(315±4 gm) controls (Charles River, Wilmington, Mass.) were housed in rooms maintained on a 12 hr light-dark cycle. Animals ate a solid diet of rat chow (Purina, Bedford, Ohio) and had free access to water. Cannulas (PE-50 and PE-10, Clay Adams Becton Dickinson, Parsippany, N.J.) were implanted into a femoral artery and vein using aseptic conditions in rats anesthetized with 1% halothane 24 hours beforehand. The free ends of the cannulas were tunneled under the skin and externalized at the back of the neck.
(§2) Conscious rats were divided into five groups. Group I (n=4 SHR and 4 WKY) received an i.v. injection of 0.9% NaCl. Group II (n=4 SHR and 4 WKY) was given an i.v. injection of enalaprilat (MK-422,2 mg/kg). Group III (n=4 SHR and 4 WKY) was injected with (N-{N-[1-(S)-carboxy-3-phenylpropyl]-(S)-phenylalanyl}-(S)-isoserine) at a dose of 15 mg/kg. […] Group IV (n=4 SHR and 4 WKY) received both MK-422 (2 mg/kg) and SCH 39,370 (15 mg/kg). Group V (n=3 SHR and 3 WKY) were given MK- 422 (2 mg/kg) and Z-prolyl-prolinal (5 mg/kg), a specific inhibitor of prolyl endopeptidase (Friedman TC, Orlowski M, Wilk S: Prolyl Endopeptidase: Inhibition in vivo by N-benzyloxycarbonyl-prolyl-prolinal. J. Neurochem. 42:237-241,1984). Either saline (vehicle) or the enzyme inhibitors were administered 20 minutes before an i.v. injection of 0.2 ml of Ang I (2 nmol) in heparinized saline. Serial samples of arterial blood (0.2 ml) were rapidly collected into ice-chilled tubes containing 5 ml of 80% ethanol/0.1N HCL every 15-30 sec before and after injection of Ang I. The amount of blood removed in each sample was replaced with an equal volume of saline. The dead space (0.08 ml) of the femoral artery catheter was cleared of any remaining saline or blood before obtaining the samples.
(§3) Peptide Extraction and Analyses: Samples were centrifuged at 5,000 g for 20 minutes; the supernatant was stored for 12 hours at -20° C. After a second centrifugation step (10,000 g, 20 min) the supernatant was diluted 1:1 (V:V) with 1% heptaflurobutyric acid (HFBA), stored for 4-6 […] hours at 4° C., and centrifuged again at 15,000 g. This supernatant was further diluted 1:4 with 0.2% HFBA and concentrated on a Sep-Pak Vac Cartridge (Millipore Co., Milford, Mass.) activated beforehand with 3 ml of 60% acetonitrile/0.2% HFBA, 3 ml of 0.1% bovine serum albumin in 0.2% HFBA, and 5 ml of HFBA. After application of the supernatant, the column was washed with 10 ml of 0.2% HFBA. Angiotensin peptides were eluted with 8 ml of 60% acetonitrile/0.2% HFBA. Fractions were evaporated to dryness in a vacuum centrifuge (Savant Instrument Inc., Hicksville, N.Y.) for measurements by radioimmunoassay (RIA). Different aliquots of the samples were assayed to ensure linearity. Peptide recovery for Ang I added to the acid ethanol solution prior to blood sample averaged 85±4%, n=6, SFM): peptide values were not corrected for recovery. Moreover, no in vitro conversion of Ang I into either Ang-(1-7) or Ang II was observed.
(§4) The RIAs employed by the inventors to determine concentrations of Ang I, Ang II, and Ang-(1-7) are described in detail elsewhere. See, Chappell MC, Brosnihan KB, Diz DI, Ferrario CM: Identification of Angiotensin-(1-7) in Rat Brain: Evidence for Differential Processing of Agiotensin Peptides. J. Biol. Chem. […]:16518-16523,1989; and, Kohara K, Brosnihan KB, Chappell MC, Khosla MC, Ferrario CM: Angiotensin-(1-7): A Member of Circulating Angiotensin Peptides. Hypertension 17:131-138, 1991. […] The sensitivity of the Ang I assay (defined as twice the minimum detection level) averaged 5 fmol/tube. The Ang II antibody was produced by the inventors. […] The sensitivity of the Ang II RIA is 0.5 fmol/tube. The antibody of Ang-(1-7) (Core No. 1) was obtained in the inventors laboratory. […]

SHR = experiment: Blood pressure effect of SCH 39,370 in SHR; type: in vivo, rat
Wistar Kyoto (WKY) rats = experiment: Blood angiotensin peptides (RIA) after i.v. Ang I in conscious WKY with enzyme inhibitors; type: in vivo, rat
Procedure: as §1, §2, §3, §4

[6] = system: DOCA-salt hypertensive rats; details: cited from earlier work
NEP 24.11 [7] = details: cited from earlier work
human urine = details: cited from earlier work
vascular smooth muscle = details: cited from earlier work
[8] = cultured mouse spinal cord cells; details: cited from earlier work
NEP 24.11 [9] = details: human; cited from earlier work
[10] = preparations of synaptic membranes from the rat brain; details: cited from earlier work
swine urine = details: cited from earlier work
[11] = system: normotensive Wistar-Kyoto control rats (WKY); experiment: Third ventricle push-pull perfusion in WKY, MAP and HR; type: in vivo, rat
Procedure: (§5) In order to assess the effectiveness of Z-Proprolinal, the specific inhibitor of prolyl endopeptidase, in controlling blood pressure the following study was conducted. […] Similar studies were performed in age-matched normotensive Wistar-Kyoto control rats (WKY) (obtained from Taconic Farms, New York).

[12] = system: spontaneously hypertensive rats (SHR); experiment: Third ventricle push-pull perfusion in SHR, MAP and HR; type: in vivo, rat
Procedure: as §5

[13] = mammals; cited from earlier work
[14] = supernatants of dog brain tissue punch homogenates (ACE activity assay); details: mongrel dogs, 37° C., up to 15 minutes

Chain of ACE (P12821 30-1306, species assumed): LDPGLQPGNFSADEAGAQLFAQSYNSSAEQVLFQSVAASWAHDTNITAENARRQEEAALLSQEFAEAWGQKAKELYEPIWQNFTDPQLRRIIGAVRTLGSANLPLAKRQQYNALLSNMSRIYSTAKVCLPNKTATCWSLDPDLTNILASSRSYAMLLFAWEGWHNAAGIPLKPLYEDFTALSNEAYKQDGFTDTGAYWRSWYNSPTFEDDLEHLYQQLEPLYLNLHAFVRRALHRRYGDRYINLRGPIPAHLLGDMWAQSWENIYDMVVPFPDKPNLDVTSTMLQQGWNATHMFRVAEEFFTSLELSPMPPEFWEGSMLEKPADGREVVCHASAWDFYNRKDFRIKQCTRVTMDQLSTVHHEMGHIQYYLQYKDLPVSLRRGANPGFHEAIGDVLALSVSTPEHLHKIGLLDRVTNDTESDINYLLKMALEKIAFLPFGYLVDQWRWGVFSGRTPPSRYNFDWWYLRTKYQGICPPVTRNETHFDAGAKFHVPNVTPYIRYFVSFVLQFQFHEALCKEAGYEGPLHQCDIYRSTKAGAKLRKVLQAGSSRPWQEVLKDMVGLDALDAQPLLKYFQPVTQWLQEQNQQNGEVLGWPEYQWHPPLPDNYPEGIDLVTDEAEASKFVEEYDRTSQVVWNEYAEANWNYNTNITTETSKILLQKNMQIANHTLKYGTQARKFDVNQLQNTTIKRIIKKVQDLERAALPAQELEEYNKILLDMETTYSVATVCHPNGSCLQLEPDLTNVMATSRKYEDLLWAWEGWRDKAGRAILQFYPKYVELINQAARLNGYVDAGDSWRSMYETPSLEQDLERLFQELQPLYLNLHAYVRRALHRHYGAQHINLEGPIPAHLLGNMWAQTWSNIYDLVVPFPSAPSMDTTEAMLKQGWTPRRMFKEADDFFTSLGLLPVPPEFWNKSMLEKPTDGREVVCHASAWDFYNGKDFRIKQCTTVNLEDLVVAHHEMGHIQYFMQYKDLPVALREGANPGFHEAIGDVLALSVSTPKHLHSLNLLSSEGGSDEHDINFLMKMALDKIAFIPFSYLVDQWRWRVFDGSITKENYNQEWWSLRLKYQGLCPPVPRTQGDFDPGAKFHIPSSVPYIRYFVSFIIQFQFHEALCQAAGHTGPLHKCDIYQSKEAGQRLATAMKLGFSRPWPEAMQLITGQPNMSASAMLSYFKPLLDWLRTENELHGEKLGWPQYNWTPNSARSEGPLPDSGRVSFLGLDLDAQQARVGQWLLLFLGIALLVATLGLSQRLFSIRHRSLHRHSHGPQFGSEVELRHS
T1 sequence (A0A8I3N6C8 1-710): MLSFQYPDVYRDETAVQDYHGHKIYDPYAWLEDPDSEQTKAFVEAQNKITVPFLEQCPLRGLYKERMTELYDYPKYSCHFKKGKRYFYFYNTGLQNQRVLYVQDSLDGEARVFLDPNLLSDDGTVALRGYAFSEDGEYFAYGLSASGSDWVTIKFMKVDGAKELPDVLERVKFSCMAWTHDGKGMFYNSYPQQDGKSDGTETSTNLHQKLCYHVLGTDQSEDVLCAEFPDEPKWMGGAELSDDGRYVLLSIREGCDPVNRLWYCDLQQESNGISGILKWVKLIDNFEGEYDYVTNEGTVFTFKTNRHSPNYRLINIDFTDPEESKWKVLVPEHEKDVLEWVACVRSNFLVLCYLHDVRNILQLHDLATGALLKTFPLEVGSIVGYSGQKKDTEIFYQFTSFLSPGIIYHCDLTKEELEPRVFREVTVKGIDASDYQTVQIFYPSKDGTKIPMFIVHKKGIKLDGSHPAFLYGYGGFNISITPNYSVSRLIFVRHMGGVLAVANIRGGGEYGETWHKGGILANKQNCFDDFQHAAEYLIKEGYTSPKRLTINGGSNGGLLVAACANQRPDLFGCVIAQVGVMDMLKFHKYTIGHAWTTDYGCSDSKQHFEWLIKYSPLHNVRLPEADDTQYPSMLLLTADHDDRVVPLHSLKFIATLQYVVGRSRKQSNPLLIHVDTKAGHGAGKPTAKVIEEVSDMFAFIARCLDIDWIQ

Compound: CC(C)C[C@H](NP(=O)(O)O[C@@H]1O[C@@H](C)[C@H](O)[C@@H](O)[C@H]1O)C(=O)N[C@@H](Cc1c[nH]c2ccccc12)C(=O)O [Phosphoramidon]
inhibition of Ang-(1-7) formation (prolylendopeptidase [1]): 12%
production of Ang-(1-7) in the presence of the inhibitor (prolylendopeptidase [1]; canine hypothalamic homogenates): not inhibited
production of Ang-(1-7) in the presence of the inhibitor (NG108 cells): not inhibited

Compound: O=S(=O)(O)c1cc[c]([Hg][Cl])cc1 [PCMS, p-chloromercuriphenylsulfonate acid]
inhibition of 125I-Ang-(1-7) levels ([2]; SHR VSMC, 1 μM, data not shown): to a similar extent as that observed with cPF-AAF-pAB
inhibition of 125I-Ang-(1-7) levels ([3]; 1 μM, data not shown): to a similar extent as that observed with cPF-AAF-pAB

increase in the rate of generation of Ang-(1-7) (prolylendopeptidase [4]): about three fold
Compound: O[C@@H](CS)[C@@H](O)CS [DTT]

change of baseline and peak plasma levels of Ang II ([5]; SHR, SCH 39,370): double
inhibition of Ang-(1-7) production at larger doses ([5]; preliminary experiments, doses above 15 mg/kg, strain not stated): no further inhibition
change of baseline and peak plasma levels of Ang II (Wistar Kyoto (WKY) rats; SCH 39,370): double
formation of Ang-(1-7) versus vehicle (Wistar Kyoto (WKY) rats; SCH 39,370 15 mg/kg alone, difference not significant (p>0.05)): inhibited the formation of Ang-(1-7)
Compound: O=C(O)[C@H](CCc1ccccc1)N[C@@H](Cc1ccccc1)C(=O)NC[C@H](O)C(=O)O [SCH 39,370, N-{N-[1-(S)-carboxy-3-phenylpropyl]-(S)-phenylalanyl}-(S)-isoserine]
inhibition of ACE (ACE): does not inhibit
inhibition of carboxypeptidase A (carboxypeptidase A): does not inhibit
reduction of peak levels of Ang-(1-7) below vehicle ([5]; SHR): 74%
peak level of Ang I in blood ([5]; SHR, 15 seconds after Ang I 2 nmol i.v., saline (label Ang I) or SCH 39,370 15 mg/kg 20 minutes before): 6.2 ± 0.4 pmol/mL
peak level of Ang II in blood ([5]; SHR, 15 seconds after Ang I 2 nmol i.v., saline (label Ang I) or SCH 39,370 15 mg/kg before): 27.2 ± 3.8 pmol/mL
formation / levels of Ang-(1-7) versus vehicle ([5]; SHR, SCH 39,370 15 mg/kg alone, difference statistically significant): decreased; also recorded: inhibited the formation of Ang-(1-7)
baseline level of Ang II ([5]; SHR, after SCH 39,370 15 mg/kg, before 0.02±0.02): 0.18 ± 0.04 pmol/mL
effect on blood pressure (SHR): did not reduce blood pressure
reduction of peak levels of Ang-(1-7) below vehicle (Wistar Kyoto (WKY) rats): 51%
peak level of Ang I in blood (Wistar Kyoto (WKY) rats; 15 seconds after Ang I 2 nmol i.v., saline (label Ang I) or SCH 39,370 15 mg/kg 20 minutes before): 4.3 ± 0.4 pmol/mL
peak level of Ang II in blood (Wistar Kyoto (WKY) rats; 15 seconds after Ang I 2 nmol i.v., saline (label Ang I) or SCH 39,370 15 mg/kg before): 21.8 ± 5.4 pmol/mL
baseline level of Ang II (Wistar Kyoto (WKY) rats; after SCH 39,370 15 mg/kg, before 0.04±0.02): 0.12 ± 0.04 pmol/mL
effect on blood pressure [6]: antihypertensive effects
inhibition of NEP 24.11 (NEP 24.11 [7]): specific and potent inhibitor

Compound: O=C(O)CNC(=O)C(CS)Cc1ccccc1 (stereo not drawn) [thiorphan]
effect on the levels of 125I-Ang-(1-7) ([2]; SHR VSMC): no effect
effect on the levels of 125I-Ang-(1-7) [3]: no effect

Compound: C[C@H](NC(=O)[C@H](C)NC(CCc1ccccc1)C(=O)O)C(=O)N[C@@H](Cc1ccccc1)C(=O)Nc1ccc(C(=O)O)cc1 (stereo partly drawn) [cFP-AAF-pAB, Carboxyphenylpropyl-alanyl-alanyl-phenylalanyl-para-aminiobenzoate]
inhibition of the formation of 125I-Ang-(1-7) from 125I-Ang I ([2]; SHR VSMC): 90%
inhibition of the formation of 125I-Ang-(1-7) from 125I-Ang I ([2]; SHR VSMC, listed as cPf-AAF-pAB, 10 µM): over 90%
inhibition of the formation of 125I-Ang-(1-7) from 125I-Ang I [3]: 90%
inhibition of the formation of 125I-Ang-(1-7) from 125I-Ang I ([3]; listed as cPf-AAF-pAB): over 90%

Compound: Asp-Arg-Val-Tyr-Ile-His-Pro-Phe
fragment found (human urine): Angiotensin-(1-7)
fragment found (vascular smooth muscle): Angiotensin-(1-7)
fragment found [8]: Angiotensin-(1-7)
cleaved bond (NEP 24.11 [9]): Tyr4-Ile5
fragment found [10]: Angiotensin-(1-7)
fragment found (swine urine): Angiotensin-(1-7)

Compound: O=C[C@@H]1CCCN1C(=O)[C@@H]1CCCN1C(=O)OCc1ccccc1 [ZPP, N-benzyloxycarbonyl-prolylprolinal] (Cbz-Pro-Pro-aldehyde)
effect on either MAP or HR ([11]; WKY (n=13), ZPP 1 μM): no effect
MAP with ZPP perfusion ([11]; WKY, ZPP 1 μM, from 99±6): 100±7 mmHg
HR with ZPP perfusion ([11]; WKY, ZPP 1 μM, from 379±18): 368±27 beats/min
reduction in MAP by K+ in the presence of ZPP ([11]; WKY, K+ alone -16±3 mmHg): -6±4 mmHg
reduction in HR by K+ in the presence of ZPP ([11]; WKY, K+ alone -37±7 beats/min): -13±8 beats/min
fall in MAP in response to depolarizing K+ after ZPP pretreatment ([12]; K+ alone -19±4 mmHg): did not change the magnitude of the fall in MAP
HR response to depolarizing K+ after ZPP pretreatment ([12]; K+ alone -32±7 beats/min): attenuated
decrease in mean arterial pressure ([12]; ZPP 1 μM perfusion of third ventricle, n=13, basal MAP 156±5 mmHg): -37±4 mmHg
heart rate (HR) with ZPP perfusion ([12]; ZPP 1 μM, from 384±10): 376±19 beats/min
effect on the levels of 125I-Ang-(1-7) ([2]; SHR VSMC): no effect
blood-brain barrier (BBB) passage [13]: readily traverses the blood-brain barrier
effect on the levels of 125I-Ang-(1-7) [3]: no effect

Compound: ^125 I-Ang I: 125I-labelled Ang I used as substrate (DRVYIHPFHL; also: 125I label; UniProt P01019 25-34, looked up)
125I-Ang-(1-7) generation as share of the total 125I-Ang I metabolism [2]: 65-80%
main peptide product in the medium [2]: ^125 I-Ang-(1-7)

Compound: His-Leu
not cleaved [14]: hydrolysis of the product His-Leu was less than 6%
